Results published in patent US20120190703A1, “SALTS OF 13A-(S)DESOXYTYLOPHORININE, PREPARATION METHODS AND PHARMACEUTICAL COMPOSITIONS AND USES THEREOF” (priority 2009, published 2012).
Where “and” joins values, the source holds several entries; their conditions need not be identical. Identical values can stand only once. Like-named read-outs stand apart in the source and are kept apart here. Marks after values point to notes of the source that are not given here.

Experiments:
[1] = Plasma pharmacokinetics after oral administration in mice; settings: for t½z: non-compartment model; for AUC(0-inf) / AUC(0-t) / Cmax / MRT inf / MRT last / Tmax: po
Description: To determine the pharmacokinetic characters of 13a-(S)-deoxytylophorinine and its salts, the studies about plasma pharmacokinetics and the character of distribution in brain were pursued.
(§1) Male ICR mice. Body weight 18˜22 g.
(+)-13a-(S)-deoxytylophorinine Tartrate, (+)-13a-(S)-deoxytylophorinine Maleate, (+)-13a-(S)-deoxytylophorinine Citrate. All were dissolved in distilled water as 0.6 mg/ml solution before experiment progressed.
72 mice were divided to 3 groups with 24 animals per group, fasting for 16 h and drinking water freely. […] Plasma was isolated by centrifugalization. After the salts were administered orally, the brain tissues of mice were collected at 5 min, 15 min, 2 h time points. 25% tissue homogenate was prepared with normal saline addition. 200 μL of homogenate and plasma were added isovolumic MeCN to precipitate protein. 5 μL of clear supernatant was analyzed by LC/MS/MS.
(+)-13a-(S)-deoxytylophorinine was dissolved in DMSO and then diluted with MeOH with concentration 10, 50, 100, 500, 1000 and 2500 ng/ml respectively. 10 μl of standard solutions of (+)-13a-(S)-deoxytylophorinine with different concentration above were added to 200 μl of blank plasma sequently to adjust the concentration to 0.5, 2.5, 5, 25, 50, 125 ng/ml respectively. MeCN was added to the solution to precipitate protein, and 5 μl of result clear supernatant was analyzed with LC/MS/MS. Linear regression was ran with the peak area of (+)-13a-(S)-deoxytylophorinine as ordinate and the concentrations as abscissa.

Solubility in water = format: physicochemical; settings: for solubility: water
mice H22 liver cancer = settings: background art; cited from earlier work
H22 tumor-bearing mice = settings: intragastric once daily
From the text: To determine the pharmacodynamic characters of 13a-(S)-deoxytylophorinine and its salts, the impact of these compounds to the tumor growth in H22 tumor-bearing mice was surveyed.
Male Kunming mice were obtained from the Laboratory Animal Center, Academy of Military Medical Science. Body weight 18˜22 g. 6 animals per group, totally 10 groups, 60 animals.
(+)-13a-(S)-deoxytylophorinine, (+)-13a-(S)-deoxytylophorinine Tartrate, (+)-13a-(S)-deoxytylophorinine Maleate, (+)-13a-(S)-deoxytylophorinine Citrate, Cytoxane (CTX) as positive control.
(+)-13a-(S)-deoxytylophorinine was administered at high dose (5 mg/kg) and low dose (2.5 mg/kg). Three (+)-13a-(S)-deoxytylophorinine salts were administered at high dose and low dose as equal moles with their prototype (Tartrate: 7.05 mg/kg, 3.53 mg/kg; Malate: 6.60 mg/kg, 3.30 mg/kg; Citrate: 7.90 mg/kg, 3.95 mg/kg).
Animals were reared in SPF grade circumstance to be observed for 24 h. The tumor cells liquid which resuscitated in abdominal cavity of KM mice was diluted with aseptic normal saline at 1:3 ratio. The resulting liquid was inoculated subcutaneously at forelimb with 0.2 mL every animal. After the injection over, the animals were divided to […] with 6 animals per group.
Four experimental samples were intragastric administered once daily 24 h after inoculation. The positive control CTX was intraperitoneal injected once daily. The animal body weight was recorded every day.

[2] = preliminary toxic experiments, background art; cited from earlier work
mice Lewis lung cancer = settings: background art; cited from earlier work
[3] = tested on: Hct8 human colon cancer cell; assay: Cytotoxic activity assay (MTT), Hct8; format: cell-based; settings: HCT-8, 120 h, 5 days
Description: (§2) To evaluate the in vitro antitumor activity of (+)-13a-(S)-Deoxytylophorinine salts in this invention, Cytotoxic activity assay (MTT) experiment was persued.
(§3) 1. Tumor cells at log phase were incubated on 96-well plates at a density of 1˜1.0×10^4 cells/ml, 100 μl/well. Cells were cultured for 24 h at 37° C. in a cell incubator with 5% CO2.
(§4) 2. The treatment cells were exposed to the tested agents at different concentrations and cultured for 5 days in a cell incubator with full humidity incubator.
(§5) 3. The incubation medium was removed, then 100 μl 0.04% MTT was added to each well and Cells were cultured for 4 hours under the same conditions.
(§6) 4. The incubation medium was removed, then 150 μl DMSO was added to each well, the absorbance at a reference wavelength of 450 nm and a test wavelength of 570 nm was read. Drug inhibitory rate was calculated.

[4] = tested on: Bel7402 human liver cancer cell; assay: Cytotoxic activity assay (MTT), Bel7402; format: cell-based; settings: Bel-7402, 120 h, 5 days
Description: as §2, §3, §4, §5, §6

[5] = Drug distribution in brain tissue after oral administration in mice; format: in vivo, ICR mice; settings: for Brain contents of (+)-13a-(S)-deoxytylophorinine (ng/ml), Mean ± SD / Brain contents of (+)-13a-(S)-deoxytylophorinine (ng/ml), individual animals 1-3: 6 mg/kg oral
Description: as §1
Plasma was isolated by centrifugalization. […] 25% tissue homogenate was prepared with normal saline addition.
The drug concentration-time data in brain tissue after administered orally of (+)-13a-(S)-deoxytylophorinine tartrate, maleate and citrate were represented in Table 8˜10 and FIG. 6˜8. […] (+)-13a-(S)-deoxytylophorinine could be detected in 5 min. The peak concentration was reached after 15 min, and the compound still can be detected after 2 h after administration.

[6] = male, ICR, mouse, plasma, 6 mg/kg
[7] = high dose × 7 d, equal moles: prototype 5.0, tartrate 7.05, maleate 6.60, citrate 7.90 mg/kg
[8] = low dose × 7 d, equal moles: prototype 2.5, tartrate 3.53, maleate 3.30, citrate 3.95 mg/kg
[9] = 6 mg/kg oral, mice, Time (min) 3
[10] = 6 mg/kg oral, mice, Time (min) 6

Structure (SMILES): COc1ccc2c3c(c4cc(OC)c(OC)cc4c2c1)CN1CCC[C@H]1C3 [(+)-13a-(S)-deoxytylophorinine, reference compound]
- t½z ([1]; 6 mg/kg oral, mice, plasma): 26.4 min
- AUC(0-inf) [1, 6]: 33.7 ng·h/mL
- AUC(0-t) [1, 6]: 33.3 ng·h/mL
- Cmax [1, 6]: 41.5 ng/mL
- MRT inf [1, 6]: 48 min
- MRT last [1, 6]: 46.2 min
- Tmax [1, 6]: 15 min
- Solubility in water (Solubility in water): Insoluble
- Solubility in water (words) (Solubility in water; statement in text, listed as 13a-(S)-Deoxytylophorinine): insoluble in water
- Solubility in water (words) (Solubility in water; statement in text, listed as (+)-13a-(S)-Deoxytylophorinine): can not be dissolved in water
- Anti-tumor proliferative activity, mice H22 liver cancer (mice H22 liver cancer): notable anti-tumor proliferative activity
- Animal No. (Initial/Final) (H22 tumor-bearing mice; [7]): 6/4
- Body Weight(g) Final (H22 tumor-bearing mice; [7]): 15.63 ± 2.16 g
- Body Weight(g) Initial (H22 tumor-bearing mice; [7]): 23.50 ± 2.51 g⁻¹
- Inhibition (%) (H22 tumor-bearing mice; [7]): 74.02** %
- Tumor Weight (g, mean ± SD) (H22 tumor-bearing mice; [7]): 0.30 ± 0.12 g
- Animal No. (Initial/Final) (H22 tumor-bearing mice; [8]): 6/6
- Body Weight(g) Final (H22 tumor-bearing mice; [8]): 23.31 ± 2.14 g
- Body Weight(g) Initial (H22 tumor-bearing mice; [8]): 23.00 ± 1.55 g⁻¹
- Inhibition (%) (H22 tumor-bearing mice; [8]): 42.79* %
- Tumor Weight (g, mean ± SD) (H22 tumor-bearing mice; [8]): 0.66 ± 0.21 g
- Toxicity in the liver and kidney [2]: not toxic in the liver and kidney
- Anti-tumor proliferative activity, mice Lewis lung cancer (mice Lewis lung cancer): notable anti-tumor proliferative activity

Structure (SMILES): CC(O)C(=O)O.COc1ccc2c3c(c4cc(OC)c(OC)cc4c2c1)CN1CCC[C@H]1C3 [Lactate, (+)-13a-(S)-deoxytylophorinine Lactate]
- Solubility in water (words) (Solubility in water): soluble in water
- solubility (Solubility in water): 120 mg/mL
- IC50 [3]: 79 nM
- IC50 [4]: 40 nM

Structure (SMILES): COc1ccc2c3c(c4cc(OC)c(OC)cc4c2c1)CN1CCC[C@H]1C3.O=C(O)C(O)C(O)C(=O)O [Tartrate, (+)-13a-(S)-deoxytylophorinine Tartrate]
- Peak concentration in blood ([1]; 6 mg/kg oral, mice): 34.2 ± 3.1 ng/mL
- Time of peak concentration in blood ([1]; 6 mg/kg oral, mice): 15 min
- t½z ([1]; 6 mg/kg oral, mice, plasma): 52.8 min
- Blood concentration of (+)-13a-(S)-deoxytylophorinine (ng/ml), individual animals 1-3 ([1]; 6 mg/kg oral, mice, Time (min) 0.08): 18.4 ng/mL and 11.7 ng/mL and 42.0 ng/mL
- Blood concentration of (+)-13a-(S)-deoxytylophorinine (ng/ml), individual animals 1-3 ([1]; 6 mg/kg oral, mice, Time (min) 0.25): 30.6 ng/mL and 36.1 ng/mL and 35.7 ng/mL
- Blood concentration of (+)-13a-(S)-deoxytylophorinine (ng/ml), individual animals 1-3 ([1]; 6 mg/kg oral, mice, Time (min) 0.5): 16.5 ng/mL and 9.0 ng/mL and 7.8 ng/mL
- Blood concentration of (+)-13a-(S)-deoxytylophorinine (ng/ml), individual animals 1-3 ([1]; 6 mg/kg oral, mice, Time (min) 1): 6.2 ng/mL and 10.0 ng/mL
- Blood concentration of (+)-13a-(S)-deoxytylophorinine (ng/ml), individual animals 1-3 ([1]; 6 mg/kg oral, mice, Time (min) 2): 2.5 ng/mL and 12.4 ng/mL and 8.7 ng/mL
- Blood concentration of (+)-13a-(S)-deoxytylophorinine (ng/ml), Mean ± SD [1, 9]: 4.5 ± 1.2 ng/mL
- Blood concentration of (+)-13a-(S)-deoxytylophorinine (ng/ml), individual animals 1-3 [1, 9]: 3.0 ng/mL and 5.0 ng/mL and 5.3 ng/mL
- Blood concentration of (+)-13a-(S)-deoxytylophorinine (ng/ml), individual animals 1-3 ([1]; 6 mg/kg oral, mice, Time (min) 4): 3.3 ng/mL and 4.2 ng/mL and 1.1 ng/mL
- Blood concentration of (+)-13a-(S)-deoxytylophorinine (ng/ml), Mean ± SD [1, 10]: 0.4 ± 0.4 ng/mL
- Blood concentration of (+)-13a-(S)-deoxytylophorinine (ng/ml), individual animals 1-3 [1, 10]: 0.0 ng/mL and 0.2 ng/mL and 0.8 ng/mL
- concentration at 5 min ([1]; male, ICR, mouse, plasma, oral, 6 mg/kg, Blood concentration of (+)-13a-(S)-deoxytylophorinine (ng/ml), Mean ± SD, 6 mg/kg oral, mice, Time (min) 0.08): 24 ± 15.9 ng/mL
- concentration at 15 min ([1]; male, ICR, mouse, plasma, oral, 6 mg/kg, Blood concentration of (+)-13a-(S)-deoxytylophorinine (ng/ml), Mean ± SD, 6 mg/kg oral, mice, Time (min) 0.25): 34.2 ± 3.1 ng/mL
- concentration at 0.5 h ([1]; male, ICR, mouse, plasma, oral, 6 mg/kg, Blood concentration of (+)-13a-(S)-deoxytylophorinine (ng/ml), Mean ± SD, 6 mg/kg oral, mice, Time (min) 0.5): 11.1 ± 4.7 ng/mL
- concentration at 1 h ([1]; male, ICR, mouse, plasma, oral, 6 mg/kg, Blood concentration of (+)-13a-(S)-deoxytylophorinine (ng/ml), Mean ± SD, 6 mg/kg oral, mice, Time (min) 1): 8.1 ± 2.7 ng/mL
- concentration at 2 h ([1]; male, ICR, mouse, plasma, oral, 6 mg/kg, Blood concentration of (+)-13a-(S)-deoxytylophorinine (ng/ml), Mean ± SD, 6 mg/kg oral, mice, Time (min) 2): 7.9 ± 5 ng/mL
- concentration at 4 h ([1]; male, ICR, mouse, plasma, oral, 6 mg/kg, Blood concentration of (+)-13a-(S)-deoxytylophorinine (ng/ml), Mean ± SD, 6 mg/kg oral, mice, Time (min) 4): 2.8 ± 1.6 ng/mL
- AUC(0-inf) [1, 6]: 37.9 ng·h/mL
- AUC(0-t) [1, 6]: 37.4 ng·h/mL
- Cmax [1, 6]: 34.2 ng/mL
- MRT inf [1, 6]: 97.8 min
- MRT last [1, 6]: 94.2 min
- Tmax [1, 6]: 15 min
- Solubility in water (words) (Solubility in water): soluble in water
- solubility (Solubility in water): 39 mg/mL
- Brain contents of (+)-13a-(S)-deoxytylophorinine (ng/ml), Mean ± SD ([5]; Time (min) 5): 48.0 ± 21.6 ng/mL
- Brain contents of (+)-13a-(S)-deoxytylophorinine (ng/ml), individual animals 1-3 ([5]; Time (min) 5): 32.4 ng/mL and 38.8 ng/mL and 72.7 ng/mL
- Brain contents of (+)-13a-(S)-deoxytylophorinine (ng/ml), Mean ± SD ([5]; Time (min) 15): 262.9 ± 11.9 ng/mL
- Brain contents of (+)-13a-(S)-deoxytylophorinine (ng/ml), individual animals 1-3 ([5]; Time (min) 15): 249.3 ng/mL and 271.0 ng/mL and 268.5 ng/mL
- Brain contents of (+)-13a-(S)-deoxytylophorinine (ng/ml), Mean ± SD ([5]; Time (min) 120): 45.7 ± 33.0 ng/mL
- Brain contents of (+)-13a-(S)-deoxytylophorinine (ng/ml), individual animals 1-3 ([5]; Time (min) 120): 24.7 ng/mL and 28.7 ng/mL and 83.7 ng/mL
- Drug contents in brain compared with prototype ([5]; oral, 3 time points): higher than their prototype
- Animal No. (Initial/Final) (H22 tumor-bearing mice; [7]): 6/6
- Body Weight(g) Final (H22 tumor-bearing mice; [7]): 13.55 ± 1.87 g
- Body Weight(g) Initial (H22 tumor-bearing mice; [7]): 22.00 ± 1.55 g⁻¹
- Inhibition (%) (H22 tumor-bearing mice; [7]): 80.35** %
- Tumor Weight (g, mean ± SD) (H22 tumor-bearing mice; [7]): 0.23 ± 0.15 g
- Animal No. (Initial/Final) (H22 tumor-bearing mice; [8]): 6/6
- Body Weight(g) Final (H22 tumor-bearing mice; [8]): 19.76 ± 2.34 g
- Body Weight(g) Initial (H22 tumor-bearing mice; [8]): 21.50 ± 0.84 g⁻¹
- Inhibition (%) (H22 tumor-bearing mice; [8]): 31.88%
- Tumor Weight (g, mean ± SD) (H22 tumor-bearing mice; [8]): 0.78 ± 0.48 g
